Experimental data reported in US20140088124A1, “IMIDAZOLE DERIVATIVES” (priority 2011, published 2014).

Target: T1, human DGAT1 (Homo sapiens, UniProt O75907)
T1 sequence (O75907 1-488): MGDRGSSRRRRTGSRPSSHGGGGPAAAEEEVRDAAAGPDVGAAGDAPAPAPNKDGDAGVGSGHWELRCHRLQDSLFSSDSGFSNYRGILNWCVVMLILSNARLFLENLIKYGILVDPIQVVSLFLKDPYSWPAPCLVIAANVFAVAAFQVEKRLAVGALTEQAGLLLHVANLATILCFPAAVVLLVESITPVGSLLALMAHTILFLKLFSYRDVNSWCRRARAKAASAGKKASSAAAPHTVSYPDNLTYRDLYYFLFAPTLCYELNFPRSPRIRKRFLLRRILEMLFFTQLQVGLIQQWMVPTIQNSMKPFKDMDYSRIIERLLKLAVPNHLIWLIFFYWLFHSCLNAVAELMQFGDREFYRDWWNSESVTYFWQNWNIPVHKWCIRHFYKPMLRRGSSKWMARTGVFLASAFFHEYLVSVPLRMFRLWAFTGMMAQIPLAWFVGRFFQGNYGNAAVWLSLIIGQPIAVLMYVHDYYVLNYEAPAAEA
Experiment: DGAT1 CPM Assay
Format: biochemical
Conditions: human DGAT1, CPM fluorescence, 1 hour incubation at room temperature
Description: 20 uL of 90 uM CPM reagent in 90% ethanol was added after 1 hour incubation at room temperature.

Structure (SMILES)	IC50 [nM]
O=C(O)[C@H]1[C@@H]2C[C@H](OC3CCN(c4ccc(-c5nc6cc(C(F)(F)F)ccc6[nH]5)cn4)CC3)C[C@@H]21 [Example 133, (1R,3R,5S,6r)-3-[(1-{5-[5-(trifluoromethyl)-1H-benzimidazol-2-yl]pyridin-2-yl}piperidin-4-yl)oxy]bicyclo[3.1.0]hexane-6-carboxylic acid]	2
CC(C)(COC1CCN(c2ccc(-c3nc4cc(C(F)(F)F)cnc4[nH]3)cn2)CC1)C(=O)O [Example 61]	46
CC(C)S(=O)(=O)NC(=O)[C@H]1CC[C@H](OC2CCN(c3ccc(-c4nc5cc(F)ccc5[nH]4)cn3)CC2)CC1 [Example 81]	17
O=C(O)[C@@H]1[C@@H]2C[C@@H](OC3CCN(c4ccc(-c5nc6cc(C(F)(F)F)ccc6[nH]5)cn4)CC3)C[C@@H]21 [Example 136]	6
CCOC(=O)[C@H]1CC[C@@H](OC2CCN(c3ccc(-c4nc5cc(F)ccc5[nH]4)cn3)CC2)CC1 [Example 77]	17
O=C(O)C[C@H]1CC[C@@H](OC2CCN(c3ccc(-c4nc5cc(Cl)ccc5[nH]4)cn3)CC2)CC1 [Example 26]	3
C[C@]1(C(=O)O)CC[C@@H](OC2CCN(c3ccc(-c4nc5cc(Cl)c(Cl)cc5[nH]4)cn3)CC2)CC1 [Example 109]	2
C[C@]1(C(=O)O)CC[C@H](OC2CCN(c3ccc(-c4nc5ccccc5[nH]4)cn3)CC2)CC1 [Example 101]	27
O=C(O)C[C@H]1CC[C@H](OC2CCN(c3ccc(-c4nc5ccc(F)cc5[nH]4)cn3)CC2)CC1 [Example 1, [trans-4-({1-[5-(6-fluoro-1H-benzimidazol-2-yl)pyridin-2-yl]piperidin-4-yl}oxy)cyclohexyl]acetic acid]	6
O=C(O)C[C@H]1CC[C@H](OC2CCN(c3ccc(-c4nc5cc(C(F)(F)F)cnc5[nH]4)cn3)CC2)CC1 [Example 17]	24
O=C(O)C1(C(=O)O)CC(OC2CCN(c3ccc(-c4nc5cc(F)c(F)cc5[nH]4)cn3)CC2)C1 [Example 94]	122
C[C@]1(C(=O)O)CC[C@@H](OC2CCN(c3ccc(-c4nc5ncc(C(F)(F)F)cc5[nH]4)cn3)CC2)CC1 [Example 107]	48
COc1ccc2nc(-c3ccc(N4CCC(O[C@H]5CC[C@H](N6CC(=O)NS6(=O)=O)CC5)CC4)nc3)[nH]c2n1 [Example 120]	29
O=C(O)C1(COC2CCN(c3ccc(-c4nc5ccc(Cl)cc5[nH]4)cn3)CC2)CCOCC1 [Example 50]	17
O=C(O)[C@H]1CC[C@@H](OC2CCN(c3ccc(-c4nc5cc(F)ccc5[nH]4)cn3)CC2)CC1 [Example 78]	6
O=C(O)CC1C[C@@H]2CC(OC3CCN(c4ccc(-c5nc6ccc(C(F)(F)F)cc6[nH]5)cn4)CC3)C[C@@H]2C1 (stereo partly shown) [Example 57]	2
CCOc1ccc2nc(-c3ccc(N4CCC(O[C@H]5CC[C@@H](CC(=O)O)CC5)CC4)nc3)[nH]c2n1 [Example 9]	20
O=C(NS(=O)(=O)c1ccc(C(F)(F)F)cc1)[C@H]1CC[C@H](OC2CCN(c3ccc(-c4nc5cc(F)ccc5[nH]4)cn3)CC2)CC1 [Example 85]	9
Cc1nc(N2CCC(O[C@H]3CC[C@H](CC(=O)O)CC3)CC2)ccc1-c1nc2ccccc2[nH]1 [Example 10]	7900
COc1ccc2[nH]c(-c3ccc(N4CCC(OCC(C)(C)C(=O)O)CC4)nc3)nc2n1 [Example 48]	60
O=C(O)[C@H]1CC[C@H](OC2CCN(c3ccc(-c4nc5ccc(C(F)(F)F)nc5[nH]4)cn3)CC2)CC1 [Example 70, trans-4-[(1-{5-[5-(trifluoromethyl)-3H-imidazo[4,5-b]pyridin-2-yl]pyridin-2-yl}piperidin-4-yl)oxy]cyclohexanecarboxylic acid]	11
O=C(O)c1cccc(OC2CCN(c3ccc(-c4nc5cc(C(F)(F)F)ccc5[nH]4)cn3)CC2)c1 [Example 114, 3-[(1-{5-[5-(trifluoromethyl)-1H-benzimidazol-2-yl]pyridin-2-yl}piperidin-4-yl)oxy]benzoic acid]	9
COc1ccc2[nH]c(-c3ccc(N4CCC(OCC(C)(C)C(=O)O)CC4)nc3)nc2n1 [Example 66]	140
O=C(O)CC1C[C@@H]2CC(OC3CCN(c4ccc(-c5nc6ccc(C(F)(F)F)cc6[nH]5)cn4)CC3)C[C@@H]2C1 (stereo partly shown) [Example 56]	2
O=C(O)C1(C(=O)O)CC(OC2CCN(c3ccc(-c4nc5cc(C(F)(F)F)ccc5[nH]4)cn3)CC2)C1 [Example 95]	85
O=C(O)[C@H]1C[C@H](OC2CCN(c3ccc(-c4nc5ccc(C(F)(F)F)cc5[nH]4)cn3)CC2)C1 [Example 33, trans-3-[(1-{5-[6-(trifluoromethyl)-1H-benzimidazol-2-yl]pyridin-2-yl}piperidin-4-yl)oxy]cyclobutanecarboxylic acid]	7

Structure (SMILES)	IC50 [nM]
O=C(NS(=O)(=O)c1ccccc1)[C@H]1CC[C@H](OC2CCN(c3ccc(-c4nc5cc(F)ccc5[nH]4)cn3)CC2)CC1 [Example 87]	14
Cc1cc(N2CCC(O[C@H]3CC[C@H](CC(=O)O)CC3)CC2)ncc1-c1nc2ccccc2[nH]1 [Example 12]	349
CCOC(=O)[C@H]1CC[C@@H](OC2CCN(c3ccc(-c4nc5cc(Cl)ccc5[nH]4)cn3)CC2)CC1 [Example 75]	14
O=C(NS(=O)(=O)c1ccccn1)[C@H]1CC[C@H](OC2CCN(c3ccc(-c4nc5cc(F)ccc5[nH]4)cn3)CC2)CC1 [Example 84]	25
CCOc1ccc2nc(-c3ccc(N4CCC(O[C@H]5CC[C@H](CC(=O)O)CC5)CC4)nc3)[nH]c2n1 [Example 4, [trans-4-({1-[5-(5-ethoxy-3H-imidazo[4,5-b]pyridin-2-yl)pyridin-2-yl]piperidin-4-yl}oxy)cyclohexyl]acetic acid]	27
O=C(NS(=O)(=O)C(F)(F)F)[C@H]1CC[C@H](OC2CCN(c3ccc(-c4nc5cc(F)ccc5[nH]4)cn3)CC2)CC1 [Example 91]	7
O=C(O)[C@H]1CC[C@@H](OC2CCN(c3ccc(-c4nc5cc(C(F)(F)F)ccc5[nH]4)cn3)CC2)CC1 [Example 68, cis-4-[(1-{5-[5-(trifluoromethyl)-1H-benzimidazol-2-yl]pyridin-2-yl}piperidin-4-yl)oxy]cyclohexanecarboxylic acid]	2
O=C(O)c1cncc(OC2CCN(c3ccc(-c4nc5cc(C(F)(F)F)ccc5[nH]4)cn3)CC2)c1 [Example 115, 5-[(1-{5-[5-(trifluoromethyl)-1H-benzimidazol-2-yl]pyridin-2-yl}piperidin-4-yl)oxy]pyridine-3-carboxylic acid]	28
Cc1nc(N2CCC(O[C@H]3CC[C@@H](CC(=O)O)CC3)CC2)ccc1-c1nc2ccccc2[nH]1 [Example 11]	6600
CC(C)(COC1CCN(c2ccc(-c3nc4cc(C#N)ccc4[nH]3)cn2)CC1)C(=O)O [Example 62]	90
O=C(O)C[C@H]1CC[C@H](OC2CCN(c3ccc(-c4nc5ccccc5[nH]4)cn3)CC2)CC1 [Example 7]	19
O=C(O)C[C@H]1CC[C@@H](OC2CCN(c3ccc(-c4nc5cc(F)ccc5[nH]4)cn3)C2)CC1 (single isomer, unassigned) [Example 140]	89
Cc1ccc2[nH]c(-c3ccc(N4CCC(O[C@H]5CC[C@@](C)(C(=O)O)CC5)CC4)nc3)nc2n1 [Example 110]	425
C[C@]1(C(=O)O)C[C@@H](OC2CCN(c3ccc(-c4nc5cc(C(F)(F)F)ccc5[nH]4)cn3)CC2)C1 [Example 104]	6
CC(C)(COC1CCN(c2ccc(-c3nc4cc(F)c(F)cc4[nH]3)cn2)CC1)C(=O)O [Example 60]	16
O=C(O)C[C@H]1CC[C@H](O[C@H]2CCN(c3ccc(-c4nc5cc(F)ccc5[nH]4)cn3)C2)CC1 [Example 138]	45
O=C1CN([C@H]2CC[C@@H](OC3CCN(c4ccc(-c5nc6ccccc6[nH]5)cn4)CC3)CC2)S(=O)(=O)N1 [Example 121]	45
O=C(O)[C@H]1C[C@@H](OC2CCN(c3ccc(-c4nc5ccc(C(F)(F)F)cc5[nH]4)cn3)CC2)C1 [Example 32, cis-3-[(1-{5-[6-(trifluoromethyl)-1H-benzimidazol-2-yl]pyridin-2-yl}piperidin-4-yl)oxy]cyclobutanecarboxylic acid]	9
COc1ccc2[nH]c(-c3ccc(N4CCC(O[C@H]5CC[C@H](CC(=O)O)CC5)CC4)nc3)nc2n1 [Example 22]	51
CC(C)(COC1CCN(c2ccc(-c3nc4cc(Cl)cnc4[nH]3)cn2)CC1)C(=O)O [Example 63]	118
O=C(O)C1(COC2CCN(c3ccc(-c4nc5ccc(F)cc5[nH]4)cn3)CC2)CCC1 [Example 39]	15
O=C(O)CC1CC(OC2CCN(c3ccc(-c4nc5ccc(C(F)(F)F)cc5[nH]4)cn3)CC2)C1 (stereo not shown) [Example 51]	6
CC(C)(COC1CCN(c2ccc(-c3nc4cc(C(F)(F)F)ccc4[nH]3)cn2)CC1)C(=O)O [Example 34]	4
C[C@]1(C(=O)O)CC[C@@H](OC2CCN(c3ccc(-c4nc5ncc(Cl)cc5[nH]4)cn3)CC2)CC1 [Example 108]	125
CC(C)(COC1CCN(c2ccc(-c3nc4ccccc4[nH]3)cn2)CC1)C(=O)O [Example 36]	67
CCOC(=O)[C@H]1CC[C@H](OC2CCN(c3ccc(-c4nc5cc(Cl)ccc5[nH]4)cn3)CC2)CC1 [Example 72]	35
